Measurements published in US12209102B2, “Heterocyclic compounds and uses thereof” (Kumquat Biosciences Inc., priority 2022, dated 2025).

Experiments:
K-Ras WT = target: T1, K-Ras WT (Homo sapiens, UniProt P01116); experiment: HTRF resonance energy transfer assay, K-Ras WT / SOS1 interaction; format: biochemical; settings: HTRF assay of Example 5; read-out: IC50 against K-Ras WT
T1 construct: made in house; host or cells: E. coli BL21 (DE3)
Method in brief: (§1)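 Buffer about 5 mM HEPES pH 7.4 with ~150 mM NaCl, ~1 mM DTT, 0.05% BSA, 0.0025% (v/v) Igepal. Protein constructs used at molarity matching the IC50 range studied (e.g. ~500 nM). FRET between tagged K-Ras and hSOS1 measured after short incubation.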

A549 cells = experiment: Ras cellular assay, growth of cells with K-Ras G12S mutation (CellTiter-Glo); format: cell-based; settings: Homo sapiens, cell growth, Example 9, G12S mutation, read-out: IC50 against A549 cells
Method in brief: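 Growth inhibition IC50 values come from four-parameter fits of CellTiter-Glo luminescence, read about 6 days after compound addition. G12S-mutant A549 cells (e.g. 800/well, RPMI-1640 + 10% heat-inactivated FBS) were plated in tissue-culture-treated or ultra-low-attachment 384-well format. Dosing began the following day with serial dilutions, e.g. 10 points, 3-fold.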

K-Ras G12D = target: T2, K-Ras G12D (Homo sapiens, UniProt P01116, G12D); experiment: HTRF resonance energy transfer assay, K-Ras G12D / SOS1 interaction; format: biochemical; settings: HTRF assay of Example 5; read-out: IC50 against K-Ras G12D
T2 construct: made in house; host or cells: E. coli BL21 (DE3)
T2 sequence (P01116 1-188 isoform P01116-2 G12D): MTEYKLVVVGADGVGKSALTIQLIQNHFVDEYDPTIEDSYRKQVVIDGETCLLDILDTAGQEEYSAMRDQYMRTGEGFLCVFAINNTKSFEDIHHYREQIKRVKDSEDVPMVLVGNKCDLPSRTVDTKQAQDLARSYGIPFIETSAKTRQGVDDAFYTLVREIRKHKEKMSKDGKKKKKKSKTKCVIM
Method in brief: as §1

SW620 cells = experiment: Ras cellular assay, growth of cells with K-Ras G12V mutation (CellTiter-Glo); format: cell-based; settings: Homo sapiens, SW-620; cell growth, Example 9, G12V mutation; read-out: IC50 against SW620 cells
Method in brief: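 IC50 values came from a four-parameter fit of CellTiter-Glo viability, read roughly 6 days after dosing with e.g. a 10-point threefold dilution series. G12V-mutant SW620 cells (e.g. 800 per well) had been plated the previous day in RPMI-1640/10% heat-inactivated FBS, on tissue culture-treated or ultra-low attachment plates.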

GP2D cells = experiment: Ras cellular assay, growth of cells with K-Ras G12D mutation (CellTiter-Glo); format: cell-based; settings: cell growth, Example 9, G12D mutation, read-out: IC50 against GP2D cells
K-Ras G12S = target: T3, K-Ras G12S (Homo sapiens, UniProt P01116, G12S); experiment: HTRF resonance energy transfer assay, K-Ras G12S / SOS1 interaction; format: biochemical; settings: HTRF assay of Example 5; read-out: IC50 against K-Ras G12S
T3 construct: made in house; host or cells: E. coli BL21 (DE3)
T3 sequence (P01116 1-188 isoform P01116-2 G12S): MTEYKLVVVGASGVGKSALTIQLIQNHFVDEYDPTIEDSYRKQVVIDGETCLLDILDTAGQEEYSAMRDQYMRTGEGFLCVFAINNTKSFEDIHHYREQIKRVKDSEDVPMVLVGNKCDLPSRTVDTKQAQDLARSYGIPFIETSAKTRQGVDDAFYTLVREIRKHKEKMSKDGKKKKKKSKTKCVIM
Method in brief: as §1

K-Ras G12V = target: T4, K-Ras G12V (Homo sapiens, UniProt P01116, G12V); experiment: HTRF resonance energy transfer assay, K-Ras G12V / SOS1 interaction; format: biochemical; settings: HTRF assay of Example 5; read-out: IC50 against K-Ras G12V
T4 construct: made in house; host or cells: E. coli BL21 (DE3)
T4 sequence (P01116 1-188 isoform P01116-2 G12V): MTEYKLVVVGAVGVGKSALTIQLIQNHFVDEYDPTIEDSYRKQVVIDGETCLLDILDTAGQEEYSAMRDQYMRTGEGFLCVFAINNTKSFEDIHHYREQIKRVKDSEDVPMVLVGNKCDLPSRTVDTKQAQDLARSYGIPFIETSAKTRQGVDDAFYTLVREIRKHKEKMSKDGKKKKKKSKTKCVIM
Method in brief: as §1

T1 sequence (P01116 1-188 isoform P01116-2): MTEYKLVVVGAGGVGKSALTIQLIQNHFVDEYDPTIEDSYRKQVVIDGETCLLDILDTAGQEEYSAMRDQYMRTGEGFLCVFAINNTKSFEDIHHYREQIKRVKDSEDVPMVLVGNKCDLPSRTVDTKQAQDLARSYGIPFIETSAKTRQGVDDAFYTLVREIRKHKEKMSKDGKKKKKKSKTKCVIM

SMILES | IC50 (K-Ras WT) [nM] | IC50 (A549 cells) [nM] | IC50 (K-Ras G12D) [nM] | IC50 (SW620 cells) [nM] | IC50 (GP2D cells) [nM] | IC50 (K-Ras G12S) [nM] | IC50 (K-Ras G12V) [nM]
CNC(=O)C1CCC(N2CCOc3c(Cl)c(-c4ccc(F)c5sc(N)c(C#N)c45)c(F)c4nc(OC[C@@]56CCCN5C[C@H](F)C6)nc2c34)C1 (stereo partly drawn) [Compound 633, 3-(9-(2-amino-3-cyano-7-fluorobenzo[b]thiophen-4-yl)-8-chloro-10-fluoro-2-(((2R,7aS)-2-fluorotetrahydro-1H-pyrrolizin-7a(5H)-yl)methoxy)-5,6-dihydro-4H-[1,4]oxazepino[5,6,7-de]quinazolin-4-yl)-N-methylcyclopentane-1-carboxamide] | < 100 | < 5000 | < 100 | < 5000 | < 500 | < 100 | < 100
Cn1ncc(C#N)c1CN1CCOc2c(Cl)c(-c3ccc(F)c4sc(N)c(C#N)c34)c(F)c3nc(OC[C@@]45CCCN4C[C@H](F)C5)nc1c23 [Compound 641, 5-((9-(2-amino-3-cyano-7-fluorobenzo[b]thiophen-4-yl)-8-chloro-10-fluoro-2-(((2R,7aS)-2-fluorotetrahydro-1H-pyrrolizin-7a(5H)-yl)methoxy)-5,6-dihydro-4H-[1,4]oxazepino[5,6,7-de]quinazolin-4-yl)methyl)-1-methyl-1H-pyrazole-4-carbonitrile] | < 100 | < 5000 | < 100 | < 5000 | < 500 | < 100 | < 100
N#CCCN1CCOc2c(Cl)c(-c3ccc(F)c4sc(N)c(C#N)c34)c(F)c3nc(OC[C@@]45CCCN4C[C@H](F)C5)nc1c23 [Compound 648, 2-amino-4-(8-chloro-4-(2-cyanoethyl)-10-fluoro-2-(((2R,7aS)-2-fluorotetrahydro-1H-pyrrolizin-7a(5H)-yl)methoxy)-5,6-dihydro-4H-[1,4]oxazepino[5,6,7-de]quinazolin-9-yl)-7-fluorobenzo[b]thiophene-3-carbonitrile] | < 100 | < 5000 | < 100 | < 5000 | < 500 | < 100 | < 100
N#Cc1c(N)sc2c(F)ccc(-c3c(Cl)c4c5c(nc(OC[C@@]67CCCN6C[C@H](F)C7)nc5c3F)N(C3CCN(C(=O)C(F)F)C3)CCO4)c12 (stereo partly drawn) [Compound 649, 2-amino-4-(8-chloro-4-(1-(2,2-difluoroacetyl)pyrrolidin-3-yl)-10-fluoro-2-(((2R,7aS)-2-fluorotetrahydro-1H-pyrrolizin-7a(5H)-yl)methoxy)-5,6-dihydro-4H-[1,4]oxazepino[5,6,7-de]quinazolin-9-yl)-7-fluorobenzo[b]thiophene-3-carbonitrile] | < 100 | < 5000 | < 100 | < 5000 | < 500 | < 100 | < 100
N#Cc1c(N)sc2c(F)ccc(-c3c(Cl)c4c5c(nc(OC[C@@]67CCCN6C[C@H](F)C7)nc5c3F)N(C3C5CC3N(C=O)C5)CCO4)c12 (stereo partly drawn) [Compound 654, 2-amino-4-(8-chloro-10-fluoro-2-(((2R,7aS)-2-fluorotetrahydro-1H-pyrrolizin-7a(5H)-yl)methoxy)-4-(2-formyl-2-azabicyclo[2.1.1]hexan-5-yl)-5,6-dihydro-4H-[1,4]oxazepino[5,6,7-de]quinazolin-9-yl)-7-fluorobenzo[b]thiophene-3-carbonitrile] | < 100 | < 5000 | < 100 | < 5000 | < 500 | < 100 | < 100
C#Cc1c(F)ccc2cc(O)cc(-c3nc4c5c(nc(OC[C@@]67CCCN6C[C@H](F)C7)nc5c3F)N(C3CCCOC3)CCO4)c12 (stereo partly drawn) [Compound 661, 5-ethynyl-6-fluoro-4-(4-fluoro-2-(((2R,7aS)-2-fluorotetrahydro-1H-pyrrolizin-7a(5H)-yl)methoxy)-10-(tetrahydro-2H-pyran-3-yl)-9,10-dihydro-8H-7-oxa-1,3,6,10-tetraazacyclohepta[de]naphthalen-5-yl)naphthalen-2-ol] | < 100 | < 5000 | < 100 | < 5000 | < 500 | < 100 | < 100
C[C@H]1CN(CCC(F)F)c2nc(OC[C@@]34CCCN3C[C@H](F)C4)nc3c(F)c(-c4ccc(F)c5sc(N)c(C#N)c45)c(Cl)c(c23)O1 [Compound 664, 2-amino-4-((6S)-8-chloro-4-(3,3-difluoropropyl)-10-fluoro-2-(((2R,7aS)-2-fluorotetrahydro-1H-pyrrolizin-7a(5H)-yl)methoxy)-6-methyl-5,6-dihydro-4H-[1,4]oxazepino[5,6,7-de]quinazolin-9-yl)-7-fluorobenzo[b]thiophene-3-carbonitrile] | < 100 | < 5000 | < 100 | < 5000 | < 500 | < 100 | < 100
C[C@H]1CN(C2CCN(C(=O)C(F)F)C2)c2nc(OC[C@@]34CCCN3C[C@H](F)C4)nc3c(F)c(-c4ccc(F)c5sc(N)c(C#N)c45)c(Cl)c(c23)O1 (stereo partly drawn) [Compound 665, 2-amino-4-((6S)-8-chloro-4-(1-(2,2-difluoroacetyl)pyrrolidin-3-yl)-10-fluoro-2-(((2R,7aS)-2-fluorotetrahydro-1H-pyrrolizin-7a(5H)-yl)methoxy)-6-methyl-5,6-dihydro-4H-[1,4]oxazepino[5,6,7-de]quinazolin-9-yl)-7-fluorobenzo[b]thiophene-3-carbonitrile] | < 100 | < 5000 | < 100 | < 5000 | < 500 | < 100 | < 100
N#Cc1c(N)sc2c(F)ccc(-c3c(Cl)c4c5c(nc(OC[C@@]67CCCN6C[C@H](F)C7)nc5c3F)N(CC3(O)CCC3)CCO4)c12 [Compound 667, 2-amino-4-(8-chloro-10-fluoro-2-(((2R,7aS)-2-fluorotetrahydro-1H-pyrrolizin-7a(5H)-yl)methoxy)-4-((1-hydroxycyclobutyl)methyl)-5,6-dihydro-4H-[1,4]oxazepino[5,6,7-de]quinazolin-9-yl)-7-fluorobenzo[b]thiophene-3-carbonitrile] | < 100 | < 5000 | < 100 | < 5000 | < 500 | < 100 | < 100
COCC(C)N1CCOc2c(Cl)c(-c3ccc(F)c4sc(N)c(C#N)c34)c(F)c3nc(OC[C@@]45CCCN4C[C@H](F)C5)nc1c23 (stereo partly drawn) [Compound 670, 2-amino-4-(8-chloro-10-fluoro-2-(((2R,7aS)-2-fluorotetrahydro-1H-pyrrolizin-7a(5H)-yl)methoxy)-4-(1-methoxypropan-2-yl)-5,6-dihydro-4H-[1,4]oxazepino[5,6,7-de]quinazolin-9-yl)-7-fluorobenzo[b]thiophene-3-carbonitrile] | < 100 | < 5000 | < 100 | < 5000 | < 500 | < 100 | < 100
